# Measurements as given in patent US11718609B2, “Heparanase inhibitors and use thereof” (Beta Therapeutics Pty Ltd, priority 2016, dated 2023).
# Columns and labels:
# [1] = target: Recombinant human active heparanase (Homo sapiens (Human), UniProt Q9Y251); experiment: Heparanase inhibition assay (colorimetric, fondaparinux substrate, WST-1 detection); format: biochemical; details: for IC50: average ± SEM, direct comparison to OGT_2115, read-out: Average IC50 (μM ± SEM), heparanase enzyme inhibition
# Sequence of Recombinant human active heparanase (Q9Y251 158-543): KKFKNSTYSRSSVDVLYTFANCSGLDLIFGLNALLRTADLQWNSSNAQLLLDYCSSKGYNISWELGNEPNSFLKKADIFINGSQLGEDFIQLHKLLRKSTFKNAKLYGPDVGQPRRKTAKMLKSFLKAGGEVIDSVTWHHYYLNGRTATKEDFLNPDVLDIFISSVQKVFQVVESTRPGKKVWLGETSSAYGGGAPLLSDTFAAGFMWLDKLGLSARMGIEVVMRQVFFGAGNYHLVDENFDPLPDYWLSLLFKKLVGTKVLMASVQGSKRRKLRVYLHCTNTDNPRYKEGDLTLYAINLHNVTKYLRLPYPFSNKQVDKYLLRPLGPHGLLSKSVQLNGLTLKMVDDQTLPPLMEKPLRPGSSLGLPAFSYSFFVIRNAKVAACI
# Sequence of Recombinant human active heparanase (Q9Y251 36-109): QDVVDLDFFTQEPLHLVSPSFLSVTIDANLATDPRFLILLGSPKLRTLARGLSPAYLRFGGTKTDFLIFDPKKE
# Procedure: Recombinant human active heparanase derived from Chinese hamster ovary cells was from R&D Systems. […] Following initiation of the reaction by addition of fondaparinux, the plate was sealed with adhesive film and incubated at 37° C. for 20-24 h. […] For the enzymatic assays, test compounds were dissolved and added to the assay at varying concentrations to calculate the level of inhibition.
# Heparanase inhibition activity of various compounds of the invention was determined using standard methods.
# [2] = test system: C57BL6J mice; experiment: Photo-oxidative damage of the retina, retinal function by electroretinography (ERG); details: intravitreal injection 1 μL of 200 μM, 5 days photo-oxidative damage
# Description: Significant trends in data points were ascertained using the one-way or two-way analysis of variance (ANOVA) to determine statistical significance (p<0.05) that is indicated by asterisks (*).
# C57BL6J mice were born and raised in 12:12 hrs light:dark cycle of 5 lux in individually vented cages, with free access to food and water. Age-matched adult mice (8-10 weeks) were randomly assigned to light damage and dim-reared control (non-light damage) groups. Animals of the light damage group were continuously exposed to 100 k lux white LED light for 1, 3, 5 and 7 days. […] Dim-reared control animals were also pupil dilated twice each day, but were returned to dim cyclic light (12:12 hrs light:dark, 5 lux light).
# During bright-light exposure, animals were housed in plastic boxes (two per box), with free access to food and water. The floors of the cages were coated with a reflective Perspex surface and illuminated by a 100-W 65000 k natural white LED (high CRI LED, Yuji, Beijing) mounted 18 cm above the plastic boxes. The LED light has an emission spectrum which more closely resembles daylight than halogen or incandescent bulbs. […] Animals were provided with bedding, food and water during the time course of light exposure, and their behaviour was monitored daily. […]
# [3] = test system: db/db mice; experiment: Insulin content of pancreatic islets in db/db mice (anti-insulin staining, morphometric analysis); format: in vivo, mouse; details: 50 mg/kg daily IP
# Procedure: FIG. 5. Insulin content in pancreas sections in db/db mice a model of Type 2 diabetes. Mice were treated daily with 50 mg/kg PI-88 IP from 4 weeks of age. Onset of clinical diabetes was determined by measuring urine glucose twice weekly with Multistix reagent strips and confirmed by measuring non-fasting blood glucose levels in tail vein blood using a MediSense glucometer with hyperglycemia defined as 2 consecutive blood glucose readings of 16 mmol/l or greater. Insulin was detected by anti-insulin antibody staining.
# The db/db mouse has defective leptin signalling resulting from a point mutation in the leptin receptor gene. Plasma insulin levels become elevated very early in life (10-14 days of age), and the affected animals are obese by the time they are 3-4 weeks old. The animals are insulin resistant, hypertriglyceridemic, and have impaired glucose tolerance.
# db/db mice were treated with saline or 50 mg/kg of PI-88 by daily intraperitoneal injection. At the cessation of treatment pancreatic islets were isolated and stained for insulin and the level of insulin expression assessed by quantitative morphometric analyses.
# [4] = test system: db/db mice; experiment: Intra-islet heparan sulfate content in db/db mice (Alcian blue staining, morphometric analysis); format: in vivo, mouse; details: 50 mg/kg daily IP
# Procedure: FIG. 6. Intra-islet HS content in pancreas sections in treated db/db mice. Mice were treated daily with 50 mg/kg PI-88 IP from 4 weeks of age. Onset of clinical diabetes was determined by measuring urine glucose twice weekly with Multistix reagent strips and confirmed by measuring non-fasting blood glucose levels in tail vein blood using a MediSense glucometer with hyperglycemia defined as 2 consecutive blood glucose readings of 16 mmol/l or greater. Islet HS was detected by Alcian blue staining.
# db/db mice were treated with saline or 50 mg/kg of PI-88 daily by intraperitoneal injection. At the cessation of treatment pancreatic islets were isolated and stained with alcian blue to visualise heparan sulfate and the heparan sulfate content of the islets was assessed by quantitative morphometric analyses.
# [5] = cited from earlier work
compound,measurement,setting,value
COc1cc2nc(-c3cccc4cccnc34)nc(NCCNC(=O)c3nnc(-c4ccccc4)o3)c2cc1OC [BT2187],IC50,[1],3.64 ± 0.62 µM
COc1cc2nc(-c3cccc4cccnc34)nc(NCCc3ccccc3)c2cc1OC [BT2164],IC50,[1],3.13 ± 0.72 µM
COc1cc2nc(NCCNC(=O)c3nnc(-c4cc5ccccc5[nH]4)o3)nc(N)c2cc1OC [BT2169],IC50,[1],4 ± 0.09 µM
COc1cc2nc(NCCNC(=O)c3nnc(-c4ccccc4)o3)nc(N)c2cc1OC.Cl [BT2172],ERG a-wave and b-wave responses versus control (PBS),[2],higher a- and b-wave responses than the control (PBS) group
same,retinal function (ERG),[2],maintained retinal function
PI-88,expression of insulin in islets,[3],increased compared to the saline treated db/db mice and is near to the level of insulin expression in the wild-type mice
same,islet heparan sulfate levels,[4],increased compared to the saline treated db/db mice and are near to the levels of heparan sulfate in the islets of wild-type mice
same,half-life,[5],approximately 30 minutes
"COc1cc2nc(N3CCN(C(=O)C4COc5ccccc5O4)CC3)nc(N)c2cc1OC (stereo not drawn) [doxazosin, reference compound]",heparanase inhibition (in words),[1],inhibits heparanase
